Test results as given in patent US9458181B2, “Cathepsin cysteine protease inhibitors” (Merck Sharp & Dohme Corp., priority 2013, dated 2016).

Columns and labels:
human cathepsin K = human cathepsin K (UniProt P43236); assay: Cathepsin K Assay (hrbCat K); assay type: biochemical; details: human cathepsin K 0.4 nM, Z-Leu-Arg-AMC 8 μM, pH 5.5, 15 min preincubation; read-out: hrbCat K IP
Method in brief: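 Human cathepsin K (0.4 nM) in pH 5.5 MES buffer with EDTA, DTT and 10% DMSO was preincubated 15 min at room temperature with compound from a ⅓ dilution series (500-0.025 μM DMSO stocks). Z-Leu-Arg-AMC (8 μM) was then added, and AMC release was followed fluorometrically (Ex 360/Em 460 nm) for 30 min; inhibition was fitted to a dose-response model.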

human cathepsin F = molecular target: T1, human cathepsin F (Homo sapiens, UniProt Q9UBX1); assay: Cathepsin F assay (hCat F); assay type: biochemical; details: human cathepsin F 10 nM, Z-Phe-Arg-AMC 8 μM, pH 5.5, 15 min preincubation; read-out: hCat F IP
T1 sequence (Q9UBX1 271-484): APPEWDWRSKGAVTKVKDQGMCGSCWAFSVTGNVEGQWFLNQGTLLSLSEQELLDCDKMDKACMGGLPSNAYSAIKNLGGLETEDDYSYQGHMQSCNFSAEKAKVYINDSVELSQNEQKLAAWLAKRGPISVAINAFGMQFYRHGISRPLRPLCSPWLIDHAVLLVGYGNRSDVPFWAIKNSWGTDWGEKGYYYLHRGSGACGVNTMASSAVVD
Method in brief: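 Fluorogenic read-out: cleavage of Z-Phe-Arg-AMC (8 μM in added buffer) was followed at Ex 360/Em 460 nm for 20 min, with dose-response fitting of percent inhibition. Before substrate addition, 10 nM human enzyme was incubated 15 min at room temperature with compounds (DMSO stocks 500–0.025 μM) in pH 5.5 MES/EDTA/DTT buffer containing 10% DMSO.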

SMILES	IC50 (human cathepsin K) [nM]	IC50 (human cathepsin F) [nM]
N#CC1(NC(=O)[C@@H]2CCCC[C@H]2c2oc(-c3ncccc3F)nc2-c2ccc(N3CCS(=O)(=O)CC3)cc2)CC1 [Example 84, (1R,2R)-N-(1-cyanocyclopropyl)-2-(4-(4-(1,1-dioxidothiomorpholino)phenyl)-2-(3-fluoropyridin-2-yl)oxazol-5-yl)cyclohexanecarboxamide]	2.92	4230
CC1CC1(C#N)NC(=O)[C@@H]1CCCC[C@H]1c1oc(-c2ccc(F)cc2)nc1-c1ccc(N2CCS(=O)(=O)CC2)cc1 (single isomer, unassigned) [Example 133, (1R,2R)-N-((2R or 2S)-1-cyano-2-methylcyclopropyl)-2-(4-(4-(1,1-dioxidothiomorpholino)phenyl)-2-(4-fluorophenyl)oxazol-5-yl)cyclohexanecarboxamide]	2.53	3140
CCC(C#N)NC(=O)[C@@H]1CCCC[C@H]1c1oc(-c2ccc(F)cc2)nc1-c1ccc(N2CCS(=O)(=O)CC2)cc1 (single isomer, unassigned) [Example 126, (1R,2R)-N-((R or S)-1-cyanopropyl)-2-(4-(4-(1,1-dioxidothiomorpholino)phenyl)-2-(4-fluorophenyl)oxazol-5-yl)cyclohexanecarboxamide]	14.6	9020
CC(C)[C@@H](C#N)NC(=O)[C@@H]1CCCC[C@H]1c1oc(-c2ccc(F)cc2)nc1-c1ccc(N2CC[S+]([O-])CC2)cc1 [Example 151, (1R,2R)-N-((S)-1-cyano-2-methylpropyl)-2-(2-(4-fluorophenyl)-4-(4-(1-oxidothiomorpholino)phenyl)oxazol-5-yl)cyclohexanecarboxamide]	3.11	628
N#CC1(NC(=O)[C@@H]2CCCC[C@H]2c2oc(-c3nccs3)nc2-c2ccc(N3CCS(=O)(=O)CC3)cc2)CC1 [Example 78, (1R,2R)-N-(1-cyanocyclopropyl)-2-(4-(4-(1,1-dioxidothiomorpholino)phenyl)-2-(thiazol-2-yl)oxazol-5-yl)cyclohexanecarboxamide]	2.49	2650
N#CC1(NC(=O)[C@@H]2CCCC[C@H]2c2oc(-c3ccc(F)cc3)nc2-c2ccc(N3CCc4ccccc43)cc2)CC1 [Example 152, (1R,2R)-N-(1-cyanocyclopropyl)-2-(2-(4-fluorophenyl)-4-(4-(indolin-1-yl)phenyl)oxazol-5-yl)cyclohexanecarboxamide]	89.7	839
N#CC1(NC(=O)[C@@H]2CC3CC3C[C@H]2c2oc(-c3ccc(F)cn3)nc2-c2ccc(N3CCS(=O)(=O)CC3)cc2)CC1 (single isomer, unassigned) [Example 9, (1R,3R,4R,6S or 1S,3R,4R,6R)-N-(1-cyanocyclopropyl)-4-(4-(4-(1,1-dioxidothiomorpholino)phenyl)-2-(5-fluoropyridin-2-yl)oxazol-5-yl)bicyclo[4.1.0]heptane-3-carboxamide]	3.54	1180
N#CC1(NC(=O)[C@@H]2CCCC[C@H]2c2oc(CC(F)(F)F)nc2-c2ccc(N3CCS(=O)(=O)CC3)cc2)CC1 [Example 15, (1R,2R)-N-(1-cyanocyclopropyl)-2-(4-(4-(1,1-dioxidothiomorpholino)phenyl)-2-(2,2,2-trifluoroethyl)oxazol-5-yl)cyclohexanecarboxamide]	1.8	640
CN(C(=O)OC(C)(C)C)c1ccc(-c2nc(-c3ccc(F)cc3)oc2[C@@H]2CCCC[C@H]2C(=O)NC2(C#N)CC2)cc1 [Example 48, tert-butyl (4-(5-((1R,2R)-2-((1-cyanocyclopropyl)carbamoyl)cyclohexyl)-2-(4-fluorophenyl)oxazol-4-yl)phenyl)(methyl)carbamate]	7.4	176

Now those with a lower IC50 (human cathepsin K), led by results:

IC50 (human cathepsin K) [nM]	IC50 (human cathepsin F) [nM]	SMILES
1.49	840	N#CC1(NC(=O)[C@@H]2CCCC[C@H]2c2oc(-c3ccc(F)cc3)nc2-c2ccc(N3CCS(=O)(=O)CC3)cc2)CC1 [Example 7, (1R,2R)—N-(1-Cyanocyclopropyl)-2-{4-[4-(1,1-dioxo-1λ^6-thiomorpholin-4-yl)phenyl]-2-(4-fluorophenyl)-1,3-oxazol-5-yl}cyclohexanecarboxamide]
1.3	53	N#CC(NC(=O)[C@@H]1CCCC[C@H]1c1oc(-c2ccc(F)cc2)nc1-c1ccc(N2CCS(=O)(=O)CC2)cc1)C(F)(F)F (mixture of isomers) [Example 149, (1R,2R)-N-((S and R)-1-cyano-2,2,2-trifluoroethyl)-2-(4-(4-(1,1-dioxidothiomorpholino)phenyl)-2-(4-fluorophenyl)oxazol-5-yl)cyclohexanecarboxamide]
1.3	825	N#CC1(NC(=O)[C@@H]2CCCC[C@H]2c2oc(-c3ccc(C(F)(F)F)cc3)nc2-c2ccc(N3CCS(=O)(=O)CC3)cc2)CC1 [Example 65, (1R,2R)-N-(1-cyanocyclopropyl)-2-(4-(4-(1,1-dioxidothiomorpholino)phenyl)-2-(4-(trifluoromethyl)phenyl)oxazol-5-yl)cyclohexanecarboxamide]
1.1	931	N#CC1(NC(=O)[C@@H]2CCCC[C@H]2c2oc(C3(C(F)(F)F)CC3)nc2-c2ccc(N3CCS(=O)(=O)CC3)cc2)CC1 [Example 110, (1R,2R)-N-(1-cyanocyclopropyl)-2-(4-(4-(1,1-dioxidothiomorpholino)phenyl)-2-(1-(trifluoromethyl)cyclopropyl)oxazol-5-yl)cyclohexanecarboxamide]
1.08	1330	Cc1nc(-c2ccc(N3CCS(=O)(=O)CC3)cc2)c([C@@H]2CCCC[C@H]2C(=O)NC2(C#N)CC2)o1 [Example 14, (1R,2R)-N-(1-cyanocyclopropyl)-2-(4-(4-(1,1-dioxidothiomorpholino)phenyl)-2-methyloxazol-5-yl)cyclohexanecarboxamide]
0.94	382	N#CC1(NC(=O)[C@@H]2CCCC[C@H]2c2oc(-c3ccc(F)c(Cl)c3)nc2-c2ccc(N3CCS(=O)(=O)CC3)cc2)CC1 [Example 36, (1R,2R)-2-(2-(3-chloro-4-fluorophenyl)-4-(4-(1,1-dioxidothiomorpholino)phenyl)oxazol-5-yl)-N-(1-cyanocyclopropyl) cyclohexanecarboxamide]
0.74	319	N#CCNC(=O)[C@@H]1CC(F)(F)CC[C@H]1c1oc(C(F)(F)C(F)(F)F)nc1-c1ccc(C(=O)N2CCOCC2)cc1 [Example 136, (1R,2R)-N-(cyanomethyl)-5,5-difluoro-2-(4-(4-(morpholine-4-carbonyl)phenyl)-2-(perfluoroethyl)oxazol-5-yl)cyclohexanecarboxamide]
0.73	37	N#C[C@@H](NC(=O)[C@@H]1CCCC[C@H]1c1oc(-c2ccc(F)cc2)nc1-c1ccc(N2CCS(=O)(=O)CC2)cc1)C1CC1 [Example 155, (1R,2R)-N-((S)-cyano(cyclopropyl)methyl)-2-(4-(4-(1,1-dioxidothiomorpholino)phenyl)-2-(4-fluorophenyl)oxazol-5-yl)cyclohexanecarboxamide]
0.69	104	CCC(C#N)NC(=O)[C@@H]1CCCC[C@H]1c1oc(-c2ccc(F)cc2)nc1-c1ccc(N2CCS(=O)(=O)CC2)cc1 (single isomer, unassigned) [Example 125, (1R,2R)-N-((S or R)-1-cyanopropyl)-2-(4-(4-(1,1-dioxidothiomorpholino)phenyl)-2-(4-fluorophenyl)oxazol-5-yl)cyclohexanecarboxamide]
0.67	72	CC(C)(C)c1nc(-c2ccc(N3CCS(=O)(=O)CC3)cc2)c([C@@H]2CCC(F)(F)C[C@H]2C(=O)NC2(C#N)CC2)s1 [Example 58, (1R,2R)-2-(2-(tert-butyl)-4-(4-(1,1-dioxidothiomorpholino)phenyl)thiazol-5-yl)-N-(1-cyanocyclopropyl)-5,5-difluorocyclohexane-carboxamide]
0.65	533	N#CC1(NC(=O)[C@@H]2CCCC[C@H]2c2oc(-c3cccc(C4CC4)c3)nc2-c2ccc(N3CCS(=O)(=O)CC3)cc2)CC1 [Example 77, (1R,2R)-N-(1-cyanocyclopropyl)-2-(2-(3-cyclopropylphenyl)-4-(4-(1,1-dioxidothiomorpholino)phenyl)oxazol-5-yl)cyclohexanecarboxamide]
0.57	619	N#CC1(NC(=O)[C@@H]2CCCC[C@H]2c2oc(-c3ccccc3F)nc2-c2ccc(N3CCS(=O)(=O)CC3)cc2)CC1 [Example 67, (1R,2R)-N-(1-cyanocyclopropyl)-2-(4-(4-(1,1-dioxidothiomorpholino)phenyl)-2-(2-fluorophenyl)oxazol-5-yl)cyclohexanecarboxamide]
0.29	327	Cc1nc(-c2ccc(N3CCS(=O)(=O)CC3)cc2)c([C@@H]2CCC(F)(F)C[C@H]2C(=O)NCC#N)o1 [Example 12, (1R,2R)-N-(cyanomethyl)-2-(4-(4-(1,1-dioxidothiomorpholino)phenyl)-2-methyloxazol-5-yl)-5,5-difluorocyclohexane-carboxamide]
